Data from patent US6673899B2, “Sodium ion-driven chloride /bi-carbonate exchanger” (JCR Pharmaceuticals Co., Ltd., priority 2000, dated 2004).

Legend:
water-injected oocytes = assay: 22Na+ uptake in water-injected Xenopus laevis oocytes (control); format: cell-based; conditions: in the presence of 300 μM DIDS, mean ± SE, n=19, 1.6±0.3 in the absence of DIDS
Method: (§1) The coding sequence of NCBE in pSD5 was linearized by digestion with FspI and in vitro transcribed with SP6 RNA polymerase as previously described (Wang, C -Z. et al., Biochem. Biophys. Res. Commun., 220:196-202(1996)). Defolliculated oocytes were injected with NCBE cRNA (50 nl, 0.5 μg/μl) or water and incubated in 1×MBS medium (88 mM NaCl, 1 mM KCl, 0.8 mM MgCl2, 0.4 mM CaCl2, 0.3 mM Ca(NO3)2, 2.4 mM NaHCO3 and 7.5 mM Tris, pH 7.4) for 3-5 days at 18° C. before the studies. The oocytes were preincubated for one hr at 18° C. in the standard solution (100 mM NaCl, 2 mM KCl, 1 mM MgCl2, 1 mM CaCl2, and 8 mM NaHCO3, pH 7.4).
(§2) For studies of dependency on extracellular Na^+concentration, the oocytes were then incubated in 1.4 ml of either 1, 10, 30 or 100 mM Na^+solution bubbled with 1.5% CO2, pH 7.4 with 0.074 MBq of ^22Na+ (NEN™ Life Science Products, Boston, Mass.). In each solution, the Na^+in the standard solution was substituted with an equal molar amount of choline. A ten μl aliquot was removed from the incubation solution for later determination of ^22Na^+-specific activity. […]
(§3) The present inventors also examined the effect of DIDS, an inhibitor of anion-transporter, on ^22Na^+uptake. Expression was assessed in the absence or presence of 0.3 mM DIDS. […]

[1] = molecular target: T1, NCBE (Na+-driven Cl-/HCO3- exchanger) (Mus musculus, UniProt Q5DTL9); assay: 22Na+ uptake in NCBE cRNA-injected Xenopus laevis oocytes; format: cell-based
T1 construct: expressed in transfected cells; host or cells: Xenopus laevis oocytes injected with NCBE cRNA (pSD5, SP6 transcript)
T1 sequence (Q5DTL9 1-1088 isoform Q5DTL9-2): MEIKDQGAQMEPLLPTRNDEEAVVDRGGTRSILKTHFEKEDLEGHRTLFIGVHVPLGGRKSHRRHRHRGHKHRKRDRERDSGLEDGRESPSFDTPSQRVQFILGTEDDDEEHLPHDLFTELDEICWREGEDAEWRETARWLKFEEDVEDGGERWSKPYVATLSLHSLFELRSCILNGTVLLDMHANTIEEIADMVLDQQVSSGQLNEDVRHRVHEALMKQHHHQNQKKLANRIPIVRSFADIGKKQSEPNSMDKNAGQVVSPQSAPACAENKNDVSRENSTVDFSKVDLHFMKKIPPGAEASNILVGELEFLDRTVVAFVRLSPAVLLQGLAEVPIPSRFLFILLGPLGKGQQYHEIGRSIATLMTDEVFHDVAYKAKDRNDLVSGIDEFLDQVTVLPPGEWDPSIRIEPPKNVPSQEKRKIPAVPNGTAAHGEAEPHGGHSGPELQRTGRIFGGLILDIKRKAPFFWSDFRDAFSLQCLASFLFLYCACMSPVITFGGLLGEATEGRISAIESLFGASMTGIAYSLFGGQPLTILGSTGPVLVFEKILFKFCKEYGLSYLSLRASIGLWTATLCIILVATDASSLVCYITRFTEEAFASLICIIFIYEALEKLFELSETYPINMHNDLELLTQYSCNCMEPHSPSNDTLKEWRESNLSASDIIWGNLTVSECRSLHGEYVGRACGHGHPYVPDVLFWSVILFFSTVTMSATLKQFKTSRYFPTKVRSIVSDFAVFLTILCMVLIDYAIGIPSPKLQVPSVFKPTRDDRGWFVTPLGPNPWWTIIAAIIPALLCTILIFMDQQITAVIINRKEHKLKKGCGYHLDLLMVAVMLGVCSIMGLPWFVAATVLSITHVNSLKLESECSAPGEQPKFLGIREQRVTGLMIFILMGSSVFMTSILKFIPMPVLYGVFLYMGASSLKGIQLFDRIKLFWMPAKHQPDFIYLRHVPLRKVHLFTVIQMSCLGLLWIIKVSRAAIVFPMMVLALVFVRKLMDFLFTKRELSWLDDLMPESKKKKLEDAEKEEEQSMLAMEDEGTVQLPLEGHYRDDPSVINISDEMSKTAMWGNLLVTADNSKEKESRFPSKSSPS
Method: as §1, §2, §3

Compound: O=S(=O)(O)c1cc(N=C=S)ccc1C=Cc1ccc(N=C=S)cc1S(=O)(=O)O [DIDS, 4,4′-diisothiocyanostilbene-2,2′-disulfonic acid]
- 22Na+ uptake (water-injected oocytes): 2.1±0.4 nmol/oocytes/hour
- effect on 22Na+ uptake by NCBE ([1]; 300 μM DIDS, NCBE cRNA-injected oocytes (FIG. 5)): partially inhibit
- 22Na+ uptake ([1]; NCBE cRNA-injected oocytes, in the presence of 300 μM DIDS, 15 min, standard solution, mean ± SE, n=14, 31.4±2.1 in the absence of DIDS): 6.0±0.7 nmol/oocyte/hour
